Data: paper PMC10584170, “Machine learning-based phenotypic imaging to characterise the targetable biology of Plasmodium falciparum male gametocytes for the development of transmission-blocking antimalarials” (PLOS Pathogens, 2023)
Read-outs that look alike come from different tables or passages of the source.

Tests used:
[1] = system: P. falciparum male gametocytes; assay: P. falciparum Dual Gamete Formation Assay (PfDGFA), male readout (exflagellation); assay type: cell-based, Plasmodium falciparum NF54; conditions: for Selectivity Ratio M: HepG2 Tox50 versus male IC50; for IC50: PfDGFA, 24 h incubation with gametocytes before induction, exflagellation readout, read-out: Male IC50; for HitlevelM: number of replicates with >50% inhibition in the male readout
Method in brief: (§1)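 NF54 mature gametocytes (d14), cpd 24 h 37°C hypoxic gas; trigger: xanthurenic acid ookinete medium + Cy3 anti-Pfs25, 4°C 4 min → 28°C 4 min. Male: exflagellation centres, brightfield x6. Female: Pfs25+ gametes, fluorescence, +24 h 28°C dark.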

[2] = system: P. falciparum female gametocytes; assay: P. falciparum Dual Gamete Formation Assay (PfDGFA), female readout (Pfs25-positive female gametes); assay type: cell-based, Plasmodium falciparum NF54; conditions: for Selectivity ratio F: HepG2 Tox50 versus female IC50; for IC50: PfDGFA, 24 h incubation with gametocytes before induction, female gamete readout, read-out: Female IC50; for HitlevelF: number of replicates with >50% inhibition in the female readout
Method in brief: as §1

HepG2 cells = assay: HepG2 cytotoxicity counter-screen; conditions: cytotoxic activity against HepG2 cells
[3] = Plasmodium falciparum, PfDGFA at 2µM, 24h preincubation with gametocytes, average of replicates, read-out: Average inhibition male (%)
[4] = Plasmodium falciparum, PfDGFA at 2µM, 24h preincubation with gametocytes, replicate R1, read-out: % inhibition male (individual replicates) R1
[5] = Plasmodium falciparum, PfDGFA at 2µM, 24h preincubation with gametocytes, replicate R2, read-out: % inhibition male (individual replicates) R2
[6] = Plasmodium falciparum, PfDGFA at 2µM, 24h preincubation with gametocytes, replicate R4, read-out: % inhibition male (individual replicates) R4
[7] = Plasmodium falciparum, PfDGFA at 2µM, 24h preincubation with gametocytes, average of replicates, read-out: Average inhibition female (%)
[8] = Plasmodium falciparum, PfDGFA at 2µM, 24h preincubation with gametocytes, replicate R1, read-out: % inhibition female (individual replicates) R1
[9] = Plasmodium falciparum, PfDGFA at 2µM, 24h preincubation with gametocytes, replicate R2, read-out: % inhibition female (individual replicates) R2
[10] = Plasmodium falciparum, PfDGFA at 2µM, 24h preincubation with gametocytes, replicate R3, read-out: % inhibition female (individual replicates) R3
[11] = Plasmodium falciparum, PfDGFA at 2µM, 24h preincubation with gametocytes, replicate R4, read-out: % inhibition female (individual replicates) R4
[12] = PfDGFA at 2µM, 24h preincubation with gametocytes, average of replicates
[13] = PfDGFA at 2µM, 24h preincubation with gametocytes, replicate R1
[14] = PfDGFA at 2µM, 24h preincubation with gametocytes, replicate R3
[15] = PfDGFA at 2µM, 24h preincubation with gametocytes, replicate R4
[16] = 2µM, 24h preincubation with gametocytes prior to induction of gametogenesis, average of replicates
[17] = 2µM, 24h preincubation with gametocytes prior to induction of gametogenesis, replicate R1
[18] = 2µM, 24h preincubation with gametocytes prior to induction of gametogenesis, replicate R3
[19] = 2µM, 24h preincubation with gametocytes prior to induction of gametogenesis, replicate R4
[20] = 2µM, 24h preincubation with gametocytes, average of replicates
[21] = 2µM, 24h preincubation with gametocytes, replicate R1
[22] = 2µM, 24h preincubation with gametocytes, replicate R3
[23] = 2µM, 24h preincubation with gametocytes, replicate R4

COc1ccc2nc(-c3cc(-c4ccc(NC(=O)C(C)C)cc4)cnc3N)[nH]c2c1 [TCMDC-135322]
Selectivity Ratio M [1]: 19.53
inhibition at 2 µM [1, 3]: 72%
inhibition at 2 µM [1, 4]: 76.6%
inhibition at 2 µM [1, 5]: 80.3%
inhibition at 2 µM ([1]; Plasmodium falciparum, PfDGFA at 2µM, 24h preincubation with gametocytes, replicate R3, read-out: % inhibition male (individual replicates) R3): 78.9%
inhibition at 2 µM [1, 6]: 52.3%
IC50 ([1]; Plasmodium falciparum): 430 nM
HitlevelM ([1]; 2µM): 4
Selectivity ratio F [2]: 0.84
inhibition at 2 µM [2, 7]: -9%
inhibition at 2 µM [2, 8]: -9.8%
inhibition at 2 µM [2, 9]: -5.2%
inhibition at 2 µM [2, 10]: -4.1%
inhibition at 2 µM [2, 11]: -17%
IC50 ([2]; Plasmodium falciparum): > 10000 nM
HitlevelF ([2]; 2µM): 0
Tox50 (HepG2 cells): 8.38 µM

COc1ccc2nc(-c3cc(-c4ccc(NC(C)=O)cc4)cnc3N)[nH]c2c1 [TCMDC-135365]
HitlevelM ([1]; 2µM, 24h preincubation): 3
Selectivity Ratio M [1]: 5.74
inhibition at 2 µM ([1]; Plasmodium falciparum, 2µM, 24h preincubation with gametocytes prior to induction of gametogenesis, average of replicates, read-out: Average inhibition male (%)): 61.3%
inhibition at 2 µM ([1]; Plasmodium falciparum, 2µM, 24h preincubation with gametocytes prior to induction of gametogenesis, replicate R1, read-out: % inhibition male (individual replicates) R1): 62.6%
inhibition at 2 µM ([1]; Plasmodium falciparum, 2µM, 24h preincubation with gametocytes prior to induction of gametogenesis, replicate R2, read-out: % inhibition male (individual replicates) R2): 72.6%
inhibition at 2 µM ([1]; Plasmodium falciparum, 2µM, 24h preincubation with gametocytes prior to induction of gametogenesis, replicate R3, read-out: % inhibition male (individual replicates) R3): 63.7%
inhibition at 2 µM ([1]; Plasmodium falciparum, 2µM, 24h preincubation with gametocytes prior to induction of gametogenesis, replicate R4, read-out: % inhibition male (individual replicates) R4): 46.2%
IC50 ([1]; Plasmodium falciparum): 540 nM
HitlevelF ([2]; 2µM, 24h preincubation): 0
Selectivity ratio F [2]: 0.31
inhibition at 2 µM ([2]; Plasmodium falciparum, 2µM, 24h preincubation with gametocytes prior to induction of gametogenesis, average of replicates, read-out: Average inhibition female (%)): -1.9%
inhibition at 2 µM ([2]; Plasmodium falciparum, 2µM, 24h preincubation with gametocytes prior to induction of gametogenesis, replicate R1, read-out: % inhibition female (individual replicates) R1): -7.6%
inhibition at 2 µM ([2]; Plasmodium falciparum, 2µM, 24h preincubation with gametocytes prior to induction of gametogenesis, replicate R2, read-out: % inhibition female (individual replicates) R2): 14.6%
inhibition at 2 µM ([2]; Plasmodium falciparum, 2µM, 24h preincubation with gametocytes prior to induction of gametogenesis, replicate R3, read-out: % inhibition female (individual replicates) R3): -10.3%
inhibition at 2 µM ([2]; Plasmodium falciparum, 2µM, 24h preincubation with gametocytes prior to induction of gametogenesis, replicate R4, read-out: % inhibition female (individual replicates) R4): -4.4%
IC50 ([2]; Plasmodium falciparum): > 10000 nM
Tox50 (HepG2 cells): 3.08 µM

CCS(=O)(=O)Nc1ccc2c(c1)/C(=C(/Nc1ccc(CN3CCCCC3)cc1)c1ccccc1)C(=O)N2 [TCMDC-135395]
Selectivity Ratio M [1]: 46.97
inhibition at 2 µM ([1]; Plasmodium falciparum, 2µM, 24h preincubation with gametocytes, average of replicates, read-out: Average inhibition male (%)): 91.1%
inhibition at 2 µM ([1]; Plasmodium falciparum, 2µM, 24h preincubation with gametocytes, replicate R1, read-out: % inhibition male (individual replicates) R1): 87%
inhibition at 2 µM ([1]; Plasmodium falciparum, 2µM, 24h preincubation with gametocytes, replicate R2, read-out: % inhibition male (individual replicates) R2): 89.8%
inhibition at 2 µM ([1]; Plasmodium falciparum, 2µM, 24h preincubation with gametocytes, replicate R3, read-out: % inhibition male (individual replicates) R3): 92.4%
inhibition at 2 µM ([1]; Plasmodium falciparum, 2µM, 24h preincubation with gametocytes, replicate R4, read-out: % inhibition male (individual replicates) R4): 95.2%
IC50 ([1]; Plasmodium falciparum): 10 nM
Selectivity ratio F [2]: 0.06
inhibition at 2 µM ([2]; Plasmodium falciparum, 2µM, 24h preincubation with gametocytes, average of replicates, read-out: Average inhibition female (%)): -5.9%
inhibition at 2 µM ([2]; Plasmodium falciparum, 2µM, 24h preincubation with gametocytes, replicate R1, read-out: % inhibition female (individual replicates) R1): -6.3%
inhibition at 2 µM ([2]; Plasmodium falciparum, 2µM, 24h preincubation with gametocytes, replicate R2, read-out: % inhibition female (individual replicates) R2): -3.4%
inhibition at 2 µM ([2]; Plasmodium falciparum, 2µM, 24h preincubation with gametocytes, replicate R3, read-out: % inhibition female (individual replicates) R3): 1.2%
inhibition at 2 µM ([2]; Plasmodium falciparum, 2µM, 24h preincubation with gametocytes, replicate R4, read-out: % inhibition female (individual replicates) R4): -15.3%
IC50 ([2]; Plasmodium falciparum): > 10000 nM
Tox50 (HepG2 cells): 0.56 µM

COc1cc(NC(=O)c2sc(-c3ccc(Cl)cc3)cc2NC(=O)c2ccncc2)ccc1OCCN1CCCC1 [TCMDC-135398]
Selectivity Ratio M [1]: 3.15
Average inhibition male (%) [1, 12]: 74.1%
% inhibition male (individual replicates) R1 [1, 13]: 92.1%
% inhibition male (individual replicates) R3 [1, 14]: 87.5%
% inhibition male (individual replicates) R4 [1, 15]: 101.9%
IC50 [1]: 1980 nM
HitlevelM ([1]; 2µM): 3
Selectivity ratio F [2]: 2.54
Average inhibition female (%) [2, 12]: 76.4%
% inhibition female (individual replicates) R1 [2, 13]: 76.9%
% inhibition female (individual replicates) R3 [2, 14]: 72.6%
% inhibition female (individual replicates) R4 [2, 15]: 86.6%
IC50 [2]: 2460 nM
HitlevelF ([2]; 2µM): 4
Tox50 (HepG2 cells): 6.24 µM

O=C(Nc1cccc(-c2nn3ncccc3c2-c2ccnc(Nc3cccc(-c4cnco4)c3)n2)c1)c1c(F)cccc1F [TCMDC-135550]
Average inhibition male (%) [1, 16]: 55.8%
% inhibition male (individual replicates) R1 [1, 17]: 81.6%
% inhibition male (individual replicates) R3 [1, 18]: 54.6%
% inhibition male (individual replicates) R4 [1, 19]: 6.2%
HitlevelM ([1]; 2µM, 24h preincubation): 3
Selectivity Ratio M [1]: 4.7
IC50 [1]: 390 nM
Average inhibition female (%) [2, 16]: -4.1%
% inhibition female (individual replicates) R1 [2, 17]: -3.8%
% inhibition female (individual replicates) R3 [2, 18]: -14.6%
% inhibition female (individual replicates) R4 [2, 19]: 0.16%
HitlevelF ([2]; 2µM, 24h preincubation): 0
Selectivity ratio F [2]: 0.18
Tox50 (HepG2 cells): 1.85 µM

COc1cc(Nc2nccc(-c3c(-c4cccc(NC(=O)c5c(F)cccc5F)c4)nn4ncccc34)n2)cc(OC)c1OC [TCMDC-135684]
Average inhibition male (%) [1, 20]: 97.0%
% inhibition male (individual replicates) R1 [1, 21]: 96.5%
% inhibition male (individual replicates) R3 [1, 22]: 98.0%
% inhibition male (individual replicates) R4 [1, 23]: 98.2%
Selectivity Ratio M [1]: 4.28
IC50 [1]: 270 nM
Average inhibition female (%) [2, 20]: 9.6%
% inhibition female (individual replicates) R1 [2, 21]: 8.4%
% inhibition female (individual replicates) R3 [2, 22]: 15.7%
% inhibition female (individual replicates) R4 [2, 23]: 19.8%
Selectivity ratio F [2]: 0.12
Tox50 (HepG2 cells): 1.17 µM

CCn1c(-c2nonc2N)nc2c(-c3ccccc3)ncc(OCCCNCCCN3CCOCC3)c21.O=C(O)C(F)(F)F [TCMDC-135858]
Selectivity Ratio M [1]: 11.73
inhibition at 2 µM [1, 3]: 85.1%
inhibition at 2 µM [1, 4]: 80.4%
inhibition at 2 µM [1, 5]: 88.6%
inhibition at 2 µM [1, 6]: 86.5%
IC50 ([1]; Plasmodium falciparum): 1370 nM
HitlevelM ([1]; 2µM): 3
Selectivity ratio F [2]: 2.48
inhibition at 2 µM [2, 7]: 23%
inhibition at 2 µM [2, 8]: 22.7%
inhibition at 2 µM [2, 9]: 28.7%
inhibition at 2 µM [2, 10]: 18.7%
inhibition at 2 µM [2, 11]: 21.9%
IC50 ([2]; Plasmodium falciparum): 6490 nM
HitlevelF ([2]; 2µM): 0
Tox50 (HepG2 cells): 16.12 µM
